ChEMBL document CHEMBL5728888, “Metallo-beta-lactamase inhibitors and methods of use thereof” (2021)

molecular target: Metallo-beta-lactamase type 2 (Bacteria, UniProt C7C422); test: Enzyme Activity: Determination of IC50 : The Class B enzyme activities were measured in the presence of the test inhibitor in a fluorescence assay against a commercially available substrate consisting of a cephalosporin core linking 7-hydroxycoumarin to fluorescein (CCF2-FA). The enzyme (NDM-1, IMP-1 or VIM-1) and the substrate were diluted in 100 mM KH2PO4 buffer (pH 7) containing 0.005% Tween-20 and 10 μM ZnSO4. In the assay, the final concentration of enzyme was 1 pM, 2 pM and 30 pM for NDM-1, IMP-1 and VIM-1, respectively, and the final concentration of CCF2-FA was 1.25 μM. The test inhibitor was dissolved in dimethylsulfoxide and diluted 1:50 in the assay, resulting in a final concentration range of 20 μM to 0.00063 μM. In a 384-well microplate, the test inhibitor was incubated with the metallo-β-lactamase enzyme and the substrate for 2 hours at 25° C. Fluorescence at 460 nm following excitation at 405 nm was measured. The IC50 value was determined from semi-logarithmic plots of enzyme inhibition versus inhibitor concentration, with a curve generated using a 4-parameter fit.
Sequence (C7C422 whole entry): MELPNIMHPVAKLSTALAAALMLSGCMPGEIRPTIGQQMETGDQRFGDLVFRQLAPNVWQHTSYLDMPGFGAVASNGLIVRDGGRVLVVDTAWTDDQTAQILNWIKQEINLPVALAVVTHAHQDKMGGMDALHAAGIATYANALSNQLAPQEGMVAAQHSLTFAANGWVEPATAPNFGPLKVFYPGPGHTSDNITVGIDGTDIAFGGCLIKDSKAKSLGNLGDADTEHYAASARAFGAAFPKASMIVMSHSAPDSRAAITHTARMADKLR

Row | IC50 [nM] | Compound
1 | 16.8 | NC[C@@H](O)CNS(=O)(=O)c1ccc(N2CC[C@H](CN)C2)c(-c2nn[nH]n2)c1S(N)(=O)=O
2 | 19.2 | NCC1CCN(c2ccc(S(=O)(=O)N[C@@H]3CCNC3)c(S(N)(=O)=O)c2-c2nn[nH]n2)CCN1 (stereo partly drawn)

Row | Compound | IC50 [nM]
3 | NC[C@@H](O)CNS(=O)(=O)c1ccc(Nc2ncc[nH]2)c(-c2nn[nH]n2)c1S(N)(=O)=O | 10.8
